Laboratory results from ChEMBL document CHEMBL1146508, “Cyclonellin, a new cyclic octapeptide from the marine sponge Axinella carteri” (J Nat Prod, 2004).
Active and inactive are the calls of the source. The calls are words filed in the database; no cut-off is given here. Peptide text beside a SMILES is read from it.

What was measured:
COLO 205 = assay: Cytotoxicity against human COLO205 cells at 50 ug/mL; format: functional, cell-based
OVCAR-3 = assay: Cytotoxicity against human OVCAR-3 cells at 50 ug/mL; format: functional, cell-based

Q: With `C[C@@H]1NC(=O)[C@H]([C@@H](C)O)NC(=O)[C@H](Cc2ccc(O)cc2)NC(=O)[C@@H]2CCCN2C(=O)[C@H](Cc2ccc(O)cc2)NC(=O)[C@H](CCCNC(=N)N)NC(=O)[C@@H]2CCCN2C(=O)[C@H](CC(N)=O)NC1=O` (cyclo(ANPRYPYT)) as the compound, how does the Activity (COLO 205) read?
A: inactive

Q: What about the Activity (OVCAR-3) of the same compound?
A: inactive
